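Test compounds were applied to cells in 96-well plates for 48 hours at 5 doses. At the GI50, growth is halved.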 Calls of active or inactive are those of the source. Rule as the data show it: active = GI50 up to about 1.1 µM and inactive = higher.
Key:
Assay in all cases: growth of human tumour cells (NCI), 48 h
SK-MEL-2 = test system: SK-MEL-2
IGROV-1 = test system: IGROV-1
NCI-H522 = test system: NCI-H522
A498 = test system: A498
CCRF-CEM = test system: CCRF-CEM
OVCAR-5 = test system: OVCAR-5
OVCAR-3 = test system: OVCAR-3
SK-MEL-28 = test system: SK-MEL-28
SF-539 = test system: SF-539
U-251 = test system: U-251
SR = test system: SR
MDA-MB-231 = test system: MDA-MB-231
TK-10 = test system: TK-10
HCT-15 = test system: HCT-15
MDA-N = test system: MDA-N
KM12 = test system: KM12
PC-3 = test system: PC-3
HCT-116 = test system: HCT-116
UO-31 = test system: UO-31
K562 = test system: K562

Q: With `Cc1c(S(=O)(=O)c2ccccc2)c(N)n(Cc2ccccc2)c1C` as the compound, how does the GI50 (SK-MEL-2) read?
A: > 100 µM (inactive)

Q: What about the GI50 (IGROV-1) of the same compound?
A: > 100 µM (inactive)

Q: What about the GI50 (NCI-H522) of the same compound?
A: > 100 µM (inactive)

Q: And the GI50 (A498)?
A: > 100 µM (inactive)

Q: And the GI50 (CCRF-CEM)?
A: > 100 µM (inactive)

Q: And the GI50 (OVCAR-5)?
A: > 100 µM (inactive)

Q: And the GI50 (OVCAR-3)?
A: 96.8 µM (inactive)

Q: And the GI50 (SK-MEL-28)?
A: > 100 µM (inactive)

Q: What about the GI50 (SF-539) of the same compound?
A: 53.1 µM (inactive)

Q: What about the GI50 (U-251) of the same compound?
A: > 100 µM (inactive)

Q: And the GI50 (SR)?
A: > 100 µM (inactive)

Q: And the GI50 (MDA-MB-231)?
A: > 100 µM (inactive)

Q: What about the GI50 (TK-10) of the same compound?
A: > 100 µM (inactive)

Q: And the GI50 (HCT-15)?
A: > 100 µM

Q: And the GI50 (MDA-N)?
A: > 100 µM (inactive)

Q: And the GI50 (KM12)?
A: > 100 µM (inactive)

Q: And the GI50 (PC-3)?
A: 38.2 µM (inactive)

Q: What about the GI50 (HCT-116) of the same compound?
A: > 100 µM (inactive)

Q: And the GI50 (UO-31)?
A: > 100 µM (inactive)

Q: What about the GI50 (K562) of the same compound?
A: > 100 µM (inactive)

Q: Which results are given for `Cc1noc(C)c1-n1nc2ccc3nonc3c2n1`?
A: GI50 (SK-MEL-2): 48.9 µM (inactive); GI50 (IGROV-1): 81.7 µM (inactive); GI50 (NCI-H522): > 78.7 µM (inactive); GI50 (A498): 32.7 µM (inactive); GI50 (CCRF-CEM): > 100 µM (inactive); GI50 (OVCAR-5): > 100 µM (inactive); GI50 (OVCAR-3): > 100 µM (inactive); GI50 (SK-MEL-28): > 100 µM (inactive); GI50 (SF-539): 41.5 µM (inactive); GI50 (U-251): 30.1 µM (inactive); GI50 (SR): > 100 µM (inactive); GI50 (MDA-MB-231): > 65.9 µM (inactive); GI50 (TK-10): 24.8 µM (inactive); GI50 (HCT-15): > 100 µM; GI50 (MDA-N): > 100 µM (inactive); GI50 (KM12): > 100 µM (inactive); GI50 (PC-3): > 100 µM (inactive); GI50 (HCT-116): 56.6 µM (inactive); GI50 (UO-31): 47.2 µM (inactive); GI50 (K562): > 100 µM (inactive)

Q: For `OC1CN2Cc3cc4c(cc3[C@]13C=C[C@@H](O)CC23)OCO4` (stereo not given in full), which GI50 (SK-MEL-2) is on record?
A: 31.6 µM (inactive)

Q: And the GI50 (IGROV-1)?
A: 18.3 µM (inactive)

Q: What about the GI50 (NCI-H522) of the same compound?
A: 27.3 µM (inactive)

Q: What about the GI50 (A498) of the same compound?
A: 34.4 µM (inactive)

Q: And the GI50 (CCRF-CEM)?
A: 8.57 µM (inactive)

Q: What about the GI50 (OVCAR-5) of the same compound?
A: 23.9 µM (inactive)

Q: What about the GI50 (OVCAR-3) of the same compound?
A: 37.2 µM (inactive)

Q: And the GI50 (SK-MEL-28)?
A: 48.4 µM (inactive)

Q: What about the GI50 (SF-539) of the same compound?
A: 45.6 µM (inactive)

Q: And the GI50 (U-251)?
A: 30.8 µM (inactive)

Q: And the GI50 (SR)?
A: 12.4 µM (inactive)

Q: What about the GI50 (MDA-MB-231) of the same compound?
A: 59.3 µM (inactive)

Q: And the GI50 (TK-10)?
A: 23.2 µM (inactive)

Q: And the GI50 (HCT-15)?
A: 30.3 µM

Q: And the GI50 (MDA-N)?
A: 17 µM (inactive)

Q: What about the GI50 (KM12) of the same compound?
A: 18.1 µM (inactive)

Q: And the GI50 (PC-3)?
A: 27.6 µM (inactive)

Q: What about the GI50 (HCT-116) of the same compound?
A: 14.2 µM (inactive)

Q: And the GI50 (UO-31)?
A: 33.6 µM (inactive)

Q: What about the GI50 (K562) of the same compound?
A: 23.7 µM (inactive)

Q: Which GI50 (SK-MEL-2) does the source give for `CC(=O)[C@]1(C)[C@H](C)O[C@](C)(CO)[C@H]1O[Si](C)(C)c1ccccc1` here?
A: > 100 µM (inactive)

Q: And the GI50 (IGROV-1)?
A: 17.1 µM (inactive)

Q: What about the GI50 (NCI-H522) of the same compound?
A: 23.2 µM (inactive)

Q: What about the GI50 (A498) of the same compound?
A: > 100 µM (inactive)

Q: And the GI50 (CCRF-CEM)?
A: 28.4 µM (inactive)

Q: What about the GI50 (OVCAR-5) of the same compound?
A: > 100 µM (inactive)

Q: What about the GI50 (OVCAR-3) of the same compound?
A: 55 µM (inactive)

Q: What about the GI50 (SK-MEL-28) of the same compound?
A: 87.1 µM (inactive)

Q: And the GI50 (SF-539)?
A: > 100 µM (inactive)

Q: What about the GI50 (U-251) of the same compound?
A: > 100 µM (inactive)

Q: What about the GI50 (SR) of the same compound?
A: 31.8 µM (inactive)

Q: What about the GI50 (MDA-MB-231) of the same compound?
A: 45.5 µM (inactive)

Q: What about the GI50 (TK-10) of the same compound?
A: 82.4 µM (inactive)

Q: What about the GI50 (HCT-15) of the same compound?
A: 23 µM

Q: And the GI50 (MDA-N)?
A: 54 µM (inactive)

Q: What about the GI50 (KM12) of the same compound?
A: 47.6 µM (inactive)

Q: What about the GI50 (PC-3) of the same compound?
A: 45.5 µM (inactive)

Q: What about the GI50 (HCT-116) of the same compound?
A: 38.4 µM (inactive)

Q: What about the GI50 (UO-31) of the same compound?
A: 28.8 µM (inactive)

Q: And the GI50 (K562)?
A: 32.8 µM (inactive)

Q: `O=C1O/C(=C(/Cl)c2c3ccccc3cc3ccccc23)c2ccccc21` was tested. Which GI50 (SK-MEL-2) did it give?
A: 15.8 µM (inactive)

Q: And the GI50 (IGROV-1)?
A: 22.5 µM (inactive)

Q: And the GI50 (NCI-H522)?
A: 29.8 µM (inactive)

Q: What about the GI50 (A498) of the same compound?
A: 27 µM (inactive)

Q: What about the GI50 (CCRF-CEM) of the same compound?
A: 4 µM (inactive)

Q: And the GI50 (OVCAR-5)?
A: 33.2 µM (inactive)

Q: And the GI50 (OVCAR-3)?
A: 20.1 µM (inactive)

Q: And the GI50 (SK-MEL-28)?
A: 40.7 µM (inactive)

Q: What about the GI50 (SF-539) of the same compound?
A: 23.6 µM (inactive)

Q: And the GI50 (U-251)?
A: 30.5 µM (inactive)

Q: What about the GI50 (SR) of the same compound?
A: 4.58 µM (inactive)

Q: What about the GI50 (MDA-MB-231) of the same compound?
A: 19.9 µM (inactive)

Q: And the GI50 (TK-10)?
A: 32.8 µM (inactive)

Q: What about the GI50 (HCT-15) of the same compound?
A: 20.6 µM

Q: What about the GI50 (MDA-N) of the same compound?
A: 27.4 µM (inactive)

Q: What about the GI50 (KM12) of the same compound?
A: 4.02 µM (inactive)

Q: What about the GI50 (PC-3) of the same compound?
A: 24.8 µM (inactive)

Q: And the GI50 (HCT-116)?
A: 3.03 µM (inactive)

Q: What about the GI50 (UO-31) of the same compound?
A: 44.2 µM (inactive)

Q: What about the GI50 (K562) of the same compound?
A: 13.8 µM (inactive)

From ChEMBL document CHEMBL1201862, “PubChem BioAssay data set” (2004)
